This is an account of results in PMC8639500, “SSTP1, a Host Defense Peptide, Exploits the Immunomodulatory IL6 Pathway to Induce Apoptosis in Cancer Cells” (Frontiers in Immunology, 2021).

Common to all, as to assay type: cell-based, human
Data set [1] concerns HSC-4 cells. Kind of data set: MTT growth inhibition by SSTP1 with or without IL6 pathway inhibitors. The conditions noted are these: 4h SSTP1 (10 μM), pre-treatment LMT-28 60 μM 1.5 h, Anti-IL6Rα 10µg/ml 2h, SC144 40 μM 2h. The method, then: (§1) Concentration- and time-dependent effects on cell growth inhibition were measured using the MTT [3-(4,5-dimethylthiazol-2-yl)−2,5-diphenyltetrazolium bromide] assay. 5000 cells/well were seeded in 96-well plate and were treated with peptides for 48h. Cells were incubated with MTT (1.25 mg/ml) for 2 hours at 37°C. The blue formazan crystals were solubilized in isopropanol and read at 595 nm.
Figure 8 SSTP1-induced pcJUN activation depends on JNK and on gp130 and IL6Rα. (A) HSC-4 cells treated with SSTP1 (30 minute) and the indicated inhibitors were used for western blot analysis of the indicated molecules (B) Densitometric analysis was done for the bands of (a) and relative phosphorylation based on untreated is plotted. (C) The cells treated with SSTP1 (30 minutes) and IL6Rα antibody or SC144 were used for western blot analysis of the indicated molecules. (D) Densitometric analysis was done for the bands of (C) and relative phosphorylation based on untreated is plotted. (E) Growth inhibition analyzed by MTT assay after 4h treatment with SSTP1(10 μM) with or without the inhibitors. LMT-28 (60 μM). For all the experiments SSTP1 (10 μM) was used with or without LMT-28 (60 μM), Ruxolitinib (30 μM) or SP600125 (20 μM), Anti-IL6Rα (10µg/ml) or SC144 (40 μM). […]

A further data set relates to MDA-MB-231 cells. The conditions noted are these: 48 h. The method, then: as §1
IC50 value for HSC-4 cells and MDA-MB-231cells were calculated with Dose-response model. Analysis of dose-response data is made available through the ‘drc’ package in R environment for statistical computing. The “drm” function in the package “drc” is a general model fitting function for analysis of concentration/dose/time-effect/response data and the four parameter a log-logistic model was fitted for estimating the slope, lower, upper and IC50 values. […] The statistical significance between two groups was analyzed using Students paired two-tailed t-test.
Figure 10 Sensitivity of cancer cells to SSTP1 depends on the level of IL6Rα. […] (C) Growth inhibition analyzed by MTT assay using 10 μM SSTP1 treated for 48h. (D) Growth inhibitory curve of SSTP1 for MDA-MB-231 cells and HEK-293 cells analyzed after 48h treatment with SSTP1 and Hemolysis induced by SSTP1 on human RBC. […] (F) The blots were quantified using ImageJ, and the graphs were plotted. *p < .05, **p < .01, ***p < .001.

Data set [2] concerns HSC-4 cells. As to the kind of experiment: MTT growth inhibition assay, HSC-4 cells. Conditions: 48 h. As to the method:
as §1
IC50 value for HSC-4 cells and MDA-MB-231cells were calculated with Dose-response model. Analysis of dose-response data is made available through the ‘drc’ package in R environment for statistical computing. […] The statistical significance between two groups was analyzed using Students paired two-tailed t-test.
Figure 1 SSTP1 induces apoptosis in oral cancer cells (A) HSC-4 cells were treated with peptides SSTP1 and SSTP2 at different concentrations in 0.5% DMEM for 48 h, and MTT assay was performed to calculate % growth inhibition. […] (C)The quantified populations are represented in the graph. […] (D) The HSC-4 cells treated with 10 μM SSTP1 or SSTP2 for indicated time intervals were used for western blot analyses (E) Densitometric analysis was done for the bands, and fold change based on 0min was calculated. […]

Residues, ends and D or L forms follow the SMILES beside them.

`O=C(NNc1nc2cc(F)ccc2n2cccc12)c1cnccn1` [SC144]: the “effect on SSTP1-induced growth inhibition” value with HSC-4 cells [1] is listed as “significantly inhibited”.

With `CC[C@H](C)[C@H](NC(=O)[C@H](CC(C)C)NC(=O)[C@H](CC(C)C)NC(=O)[C@@H]1CCCN1C(=O)[C@H](CC(C)C)NC(=O)[C@@H](N)Cc1ccccc1)C(=O)N[C@@H](CO)C(=O)N[C@@H](C)C(=O)N[C@@H](CC(C)C)C(=O)N[C@H](C(=O)N[C@@H](CO)C(=O)N[C@@H](CC(C)C)C(=O)N[C@@H](Cc1ccccc1)C(=O)N1CCC[C@H]1C(=O)N[C@@H](CCCCN)C(=O)N[C@@H](CC(C)C)C(=O)NCC(=O)N[C@@H](CCCCN)C(=O)O)[C@@H](C)O` [SSTP1] (H-FLPLLISALTSLFPKLGK-OH), the figures for the IC50 in the data set on MDA-MB-231 cells and in the data set on HSC-4 cells [2] were 4.5 µM and 10.2 µM, respectively.

For the compound `CC[C@H](C)[C@H](NC(=O)[C@H](CCCNC(=N)N)NC(=O)[C@H](CCCNC(=N)N)NC(=O)[C@@H]1CCCN1C(=O)[C@H](CC(C)C)NC(=O)[C@@H](N)Cc1ccccc1)C(=O)N[C@@H](CO)C(=O)N[C@@H](C)C(=O)N[C@@H](CCCNC(=N)N)C(=O)N[C@H](C(=O)N[C@@H](CO)C(=O)N[C@@H](CC(C)C)C(=O)N[C@@H](Cc1ccccc1)C(=O)N1CCC[C@H]1C(=O)N[C@@H](CCCCN)C(=O)N[C@@H](CCCNC(=N)N)C(=O)NCC(=O)N[C@@H](CCCCN)C(N)=O)[C@@H](C)O` [SSTP2] (H-FLPRRISARTSLFPKRGK-NH2), the “cytotoxicity (growth inhibition) in words” value in the data set with HSC-4 cells [2] (HSC-4 cells, MTT) is “negligible cytotoxicity”.
